Experimental data as given in patent US8901118B2, “Compounds and methods for kinase modulation, and indications therefor” (Plexxikon Inc., priority 2010, dated 2014).

Legend:
c-Kit kinase = c-Kit kinase (Homo sapiens, UniProt P10721); assay: c-Kit kinase biochemical activity assay (AlphaScreen, biotin-(E4Y)10 phosphorylation); settings: 100 μM ATP; read-out: Biochemical Inhibition IC50 Kit
In short: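 AlphaScreen read-out (streptavidin donor, anti-phosphotyrosine PY20 acceptor beads, EDTA stop) of c-Kit activity. Reaction: 0.75 ng kinase, 100 µM ATP, 30 nM biotin-(E4Y)10, 25 mM HEPES pH 7.5, 2 mM MgCl2, 2 mM MnCl2, 5% DMSO, 1 h room temperature. IC50 derived over an 8-point, two-fold dilution series.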

BCR-NTRK1 BaF3 cells = molecular target: T1, BCR-NTRK1 BaF3 cells (Homo sapiens, UniProt P04629); assay: BaF3 BCR-NTRK1 cell proliferation assay (ATPlite); assay type: cell-based; settings: read-out: Inhibition of Cell Proliferation IC50, BCR/BaF3 TrkA
T1 construct: fused on or other part: P11274 (Breakpoint cluster region protein)
In short: (§1)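 For these proliferation assays, engineered BaF3 cells (10,000/well, IL-3 withdrawn) and MV-4-11 cells (25,000/well) received compound serially diluted 1:3 from 10 μM over 8 points, with DMSO as control. After three days of culture, ATP content was measured by luminescence to derive IC50.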

BCR-NTRK3 BaF3 cells = molecular target: T2, BCR-NTRK3 BaF3 cells (Homo sapiens, UniProt Q16288); assay: BaF3 BCR-NTRK3 cell proliferation assay (ATPlite); assay type: cell-based; settings: read-out: Inhibition of Cell Proliferation IC50, BCR/BaF3 TrkC
T2 construct: fused on or other part: P11274 (Breakpoint cluster region protein)
In short: as §1

T2 sequence (Q16288 whole entry, the tested form may be a part): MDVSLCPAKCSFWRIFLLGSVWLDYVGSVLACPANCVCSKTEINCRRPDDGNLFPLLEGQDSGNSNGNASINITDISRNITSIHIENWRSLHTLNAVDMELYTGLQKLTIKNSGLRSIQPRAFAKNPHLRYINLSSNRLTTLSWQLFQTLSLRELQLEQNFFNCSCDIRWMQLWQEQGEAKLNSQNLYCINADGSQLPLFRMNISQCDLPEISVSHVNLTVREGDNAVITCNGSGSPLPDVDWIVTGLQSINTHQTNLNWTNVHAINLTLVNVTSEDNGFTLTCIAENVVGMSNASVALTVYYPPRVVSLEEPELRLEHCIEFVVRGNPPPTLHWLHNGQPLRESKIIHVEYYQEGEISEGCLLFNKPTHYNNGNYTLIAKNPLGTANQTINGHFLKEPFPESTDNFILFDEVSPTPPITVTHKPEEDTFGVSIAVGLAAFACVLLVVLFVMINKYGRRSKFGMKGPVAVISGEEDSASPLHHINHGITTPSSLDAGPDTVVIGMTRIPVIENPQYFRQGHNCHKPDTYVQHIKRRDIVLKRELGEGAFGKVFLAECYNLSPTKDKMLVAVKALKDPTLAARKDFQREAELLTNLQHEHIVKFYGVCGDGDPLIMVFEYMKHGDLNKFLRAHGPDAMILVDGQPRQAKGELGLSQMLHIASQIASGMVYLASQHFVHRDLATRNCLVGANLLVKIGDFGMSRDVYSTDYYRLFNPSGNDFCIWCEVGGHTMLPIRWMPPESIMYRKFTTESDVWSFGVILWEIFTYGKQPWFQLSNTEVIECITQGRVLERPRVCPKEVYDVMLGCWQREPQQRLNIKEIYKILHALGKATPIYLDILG
c-Kit kinase, sequence (P10721 26-976): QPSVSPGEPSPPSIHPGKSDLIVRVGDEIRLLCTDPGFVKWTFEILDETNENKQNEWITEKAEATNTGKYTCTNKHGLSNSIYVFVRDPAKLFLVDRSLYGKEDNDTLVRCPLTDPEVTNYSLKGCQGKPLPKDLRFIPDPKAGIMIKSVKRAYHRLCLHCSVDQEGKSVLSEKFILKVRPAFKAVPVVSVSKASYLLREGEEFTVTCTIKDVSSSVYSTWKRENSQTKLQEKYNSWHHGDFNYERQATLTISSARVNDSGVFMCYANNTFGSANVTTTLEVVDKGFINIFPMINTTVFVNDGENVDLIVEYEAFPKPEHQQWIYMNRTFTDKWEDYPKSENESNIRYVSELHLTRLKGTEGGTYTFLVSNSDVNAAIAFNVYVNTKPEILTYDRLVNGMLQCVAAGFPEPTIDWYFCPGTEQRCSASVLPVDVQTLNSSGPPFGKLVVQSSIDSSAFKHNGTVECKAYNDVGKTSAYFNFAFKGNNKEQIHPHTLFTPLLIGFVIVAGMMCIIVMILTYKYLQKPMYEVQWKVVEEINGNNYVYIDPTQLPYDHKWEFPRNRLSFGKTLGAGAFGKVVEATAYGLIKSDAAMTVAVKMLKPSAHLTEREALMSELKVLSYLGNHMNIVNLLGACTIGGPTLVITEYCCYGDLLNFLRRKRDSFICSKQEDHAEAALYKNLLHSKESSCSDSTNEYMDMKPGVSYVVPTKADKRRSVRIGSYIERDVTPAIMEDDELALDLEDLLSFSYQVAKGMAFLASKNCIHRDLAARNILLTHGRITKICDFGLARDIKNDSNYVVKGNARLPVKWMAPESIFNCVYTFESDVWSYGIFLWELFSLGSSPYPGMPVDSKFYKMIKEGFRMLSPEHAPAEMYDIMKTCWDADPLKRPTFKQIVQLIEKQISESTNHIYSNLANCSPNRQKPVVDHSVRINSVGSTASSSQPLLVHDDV
T1 sequence (P04629 510-781): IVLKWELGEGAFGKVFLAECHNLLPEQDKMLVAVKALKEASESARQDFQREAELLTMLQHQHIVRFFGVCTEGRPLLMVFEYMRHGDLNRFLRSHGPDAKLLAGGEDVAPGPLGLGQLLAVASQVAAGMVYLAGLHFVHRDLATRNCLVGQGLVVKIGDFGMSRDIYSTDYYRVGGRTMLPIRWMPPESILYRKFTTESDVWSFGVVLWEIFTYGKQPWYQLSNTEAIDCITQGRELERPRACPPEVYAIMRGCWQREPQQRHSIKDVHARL

With Clc1cnc2[nH]cc(Cc3cnc(NC4CCC4)nc3)c2c1 [Compound P-3007, [5-(5-Chloro-1H-pyrrolo[2,3-b]pyridin-3-ylmethyl)-pyrimidin-2-yl]-cyclobutyl-amine] the IC50 (c-Kit kinase) was > 1000 nM, the IC50 (BCR-NTRK1 BaF3 cells) was > 10000 nM and the IC50 (BCR-NTRK3 BaF3 cells) was > 10000 nM.

With Cc1cnc2[nH]cc(Cc3ccc(NC4CCCCC4)nc3F)c2c1 [Compound P-3008, cyclohexyl-[6-fluoro-5-(5-methyl-1H-pyrrolo[2,3-b]pyridin-3-ylmethyl)-pyridin-2-yl]-amine] the IC50 (c-Kit kinase) was < 1000 nM.

O=C(c1ccc(Nc2ccc(C3CC3)nc2)nc1F)c1c[nH]c2ncnc(C3CC3)c12 [Compound P-4040, [6-(6-Cyclopropyl-pyridin-3-ylamino)-2-fluoro-pyridin-3-yl]-(4-cyclopropyl-7H-pyrrolo[2,3-d]pyrimidin-5-yl)-methanone] was tested, and the IC50 (c-Kit kinase) was < 100 nM, the IC50 (BCR-NTRK1 BaF3 cells) was < 10 nM and the IC50 (BCR-NTRK3 BaF3 cells) was < 10 nM.

For Fc1nc(Nc2ccc(C3CC3)nc2)ccc1Cc1c[nH]c2ncnc(C3CC3)c12 [Compound P-4041, (6-Cyclopropyl-pyridin-3-yl)-[5-(4-cyclopropyl-7H-pyrrolo[2,3-d]pyrimidin-5-ylmethyl)-6-fluoro-pyridin-2-yl]-amine], the IC50 (c-Kit kinase) was < 100 nM, the IC50 (BCR-NTRK1 BaF3 cells) was < 10 nM and the IC50 (BCR-NTRK3 BaF3 cells) was < 10 nM.

With Nc1ncnc2[nH]cc(C(=O)c3ccc(NC4CCC(F)(F)CC4)nc3Cl)c12 [Compound P-4046, (4-amino-7H-pyrrolo[2,3-d]pyrimidin-5-yl)-[2-chloro-6-[(4,4-difluorocyclohexyl)amino]-3-pyridyl]methanone] the IC50 (c-Kit kinase) was < 1000 nM, the IC50 (BCR-NTRK1 BaF3 cells) was < 1000 nM and the IC50 (BCR-NTRK3 BaF3 cells) was < 1000 nM.

For CC(C)=CNc1ncnc2[nH]cc(C(=O)c3ccc(NC4CCC(F)(F)CC4)nc3Cl)c12 [Compound P-4047, [2-chloro-6-[(4,4-difluorocyclohexyl)amino]-3-pyridyl]-[4-(2-methylprop-1-enylamino)-7H-pyrrolo[2,3-d]pyrimidin-5-yl]methanone], the IC50 (c-Kit kinase) was > 1000 nM, the IC50 (BCR-NTRK1 BaF3 cells) was > 1000 nM and the IC50 (BCR-NTRK3 BaF3 cells) was > 1000 nM.

In the case of Nc1ncnc2[nH]cc(C(=O)c3ccc(Nc4ccc(C5CC5)nc4)nc3F)c12 [Compound P-4048, (4-amino-7H-pyrrolo[2,3-d]pyrimidin-5-yl)-[6-[(6-cyclopropyl-3-pyridyl)amino]-2-fluoro-3-pyridyl]methanone], the IC50 (c-Kit kinase) is reported as < 10 nM, the IC50 (BCR-NTRK1 BaF3 cells) is reported as < 1000 nM and the IC50 (BCR-NTRK3 BaF3 cells) is reported as < 10 nM.

In the case of CC(C)(O)CNc1ncnc2[nH]cc(C(=O)c3ccc(Nc4ccc(C5CC5)nc4)nc3F)c12 [Compound P-4049, [6-[(6-cyclopropyl-3-pyridyl)amino]-2-fluoro-3-pyridyl]-[4-[(2-hydroxy-2-methyl-propyl)amino]-7H-pyrrolo[2,3-d]pyrimidin-5-yl]methanone], the IC50 (c-Kit kinase) is reported as < 1000 nM, the IC50 (BCR-NTRK1 BaF3 cells) is reported as < 1000 nM and the IC50 (BCR-NTRK3 BaF3 cells) is reported as < 1000 nM.

For CCNc1ncnc2[nH]cc(C(=O)c3ccc(NC4CCC(F)(F)CC4)nc3Cl)c12 [Compound P-4050, [2-chloro-6-[(4,4-difluorocyclohexyl)amino]-3-pyridyl]-[4-(ethylamino)-7H-pyrrolo[2,3-d]pyrimidin-5-yl]methanone], the IC50 (c-Kit kinase) was < 1000 nM, the IC50 (BCR-NTRK1 BaF3 cells) was < 1000 nM and the IC50 (BCR-NTRK3 BaF3 cells) was < 1000 nM.

CCNc1ncnc2[nH]cc(C(=O)c3cnc(NC4CCC(F)(F)CC4)c(F)c3)c12 [Compound P-4051, [6-[(4,4-difluorocyclohexyl)amino]-5-fluoro-3-pyridyl]-[4-(ethylamino)-7H-pyrrolo[2,3-d]pyrimidin-5-yl]methanone] was tested, and the IC50 (c-Kit kinase) was < 1000 nM, the IC50 (BCR-NTRK1 BaF3 cells) was < 1000 nM and the IC50 (BCR-NTRK3 BaF3 cells) was < 10 nM.

With O=C(c1cnc(NC2CCC(F)(F)CC2)c(F)c1)c1c[nH]c2ncnc(NCC(F)(F)F)c12 [Compound P-4052, [6-[(4,4-difluorocyclohexyl)amino]-5-fluoro-3-pyridyl]-[4-(2,2,2-trifluoroethylamino)-7H-pyrrolo[2,3-d]pyrimidin-5-yl]methanone] the IC50 (c-Kit kinase) was > 1000 nM, the IC50 (BCR-NTRK1 BaF3 cells) was < 1000 nM and the IC50 (BCR-NTRK3 BaF3 cells) was < 10 nM.

With O=C(c1cnc(NC2CCC(F)(F)CC2)c(F)c1)c1c[nH]c2ncnc(NC3CC3)c12 [Compound P-4053, [4-(cyclopropylamino)-7H-pyrrolo[2,3-d]pyrimidin-5-yl]-[6-[(4,4-difluorocyclohexyl)amino]-5-fluoro-3-pyridyl]methanone] the IC50 (c-Kit kinase) was < 1000 nM, the IC50 (BCR-NTRK1 BaF3 cells) was < 10 nM and the IC50 (BCR-NTRK3 BaF3 cells) was < 10 nM.

In the case of CNc1ncnc2[nH]cc(C(=O)c3cnc(NC4CCC(F)(F)CC4)c(F)c3)c12 [Compound P-4054, [6-[(4,4-difluorocyclohexyl)amino]-5-fluoro-3-pyridyl]-[4-(methylamino)-7H-pyrrolo[2,3-d]pyrimidin-5-yl]methanone], the IC50 (c-Kit kinase) is reported as > 1000 nM, the IC50 (BCR-NTRK1 BaF3 cells) is reported as < 1000 nM and the IC50 (BCR-NTRK3 BaF3 cells) is reported as < 10 nM.
